Laboratory results taken from ChEMBL document CHEMBL5620432 (Eur J Med Chem, 2023).

Tests used:
[1] = target: T1, Nociceptin receptor (Homo sapiens, UniProt P41146); test: Agonist activity at human NOP receptor expressed in CHO-K1 cells co-expressed with Galphai by cAMP assay relative to control; type: functional, cell-based
[2] = target: T2, Mu-type opioid receptor (Homo sapiens, UniProt P35372); test: Agonist activity at human MOR expressed in CHO-K1 cells co-expressed with Galphai by cAMP assay relative to control; type: functional, cell-based
[3] = test system: Mus musculus; test: Antinociceptive activity in wild type C57BL/6 mouse assessed as maximum possible effect at 12 mg/kg measured upto 60 mins by tail-flick test; type: functional; conditions: 1 h
[4] = target: T1, Nociceptin receptor; test: Agonist activity at human NOP receptor expressed in CHO-K1 cells co-expressed with Galphai by cAMP assay; type: functional, cell-based
[5] = target: T2, Mu-type opioid receptor; test: Agonist activity at human MOR expressed in CHO-K1 cells co-expressed with Galphai by cAMP assay; type: functional, cell-based

T1 sequence (P41146 whole entry): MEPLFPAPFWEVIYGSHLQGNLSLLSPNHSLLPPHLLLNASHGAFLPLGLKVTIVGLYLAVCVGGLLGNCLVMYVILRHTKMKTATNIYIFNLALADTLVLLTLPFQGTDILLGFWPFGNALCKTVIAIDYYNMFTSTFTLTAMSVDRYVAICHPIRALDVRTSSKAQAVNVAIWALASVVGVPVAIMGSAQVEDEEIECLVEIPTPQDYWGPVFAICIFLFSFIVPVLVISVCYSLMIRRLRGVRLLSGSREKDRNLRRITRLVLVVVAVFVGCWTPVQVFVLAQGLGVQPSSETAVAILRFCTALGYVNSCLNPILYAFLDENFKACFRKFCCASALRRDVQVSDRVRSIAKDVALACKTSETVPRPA
T2 sequence (P35372 whole entry): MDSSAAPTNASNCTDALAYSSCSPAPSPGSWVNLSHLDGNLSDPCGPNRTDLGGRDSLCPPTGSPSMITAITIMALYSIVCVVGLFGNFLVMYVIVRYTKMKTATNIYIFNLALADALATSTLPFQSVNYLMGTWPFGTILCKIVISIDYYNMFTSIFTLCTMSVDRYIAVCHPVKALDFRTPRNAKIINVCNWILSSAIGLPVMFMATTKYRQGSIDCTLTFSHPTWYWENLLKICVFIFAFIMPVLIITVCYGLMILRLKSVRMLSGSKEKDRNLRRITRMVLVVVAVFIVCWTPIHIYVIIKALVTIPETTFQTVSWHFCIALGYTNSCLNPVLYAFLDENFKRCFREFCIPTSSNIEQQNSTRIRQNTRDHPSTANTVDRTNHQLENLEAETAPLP

| Structure (SMILES) | Emax ([1]; filed as agonist) | Emax ([2]; filed as agonist) | MPE [3] | EC50 [4] | EC50 [5] | Emax [1] | Emax [2] |
| --- | --- | --- | --- | --- | --- | --- | --- |
| Cc1cccc(CCNC(=O)NCC(c2cccc(F)c2)N(C)C)c1 (stereo unspecified) | 67% | 89.7% | 0% |  |  |  |  |
| CN(C)C(CNC(=O)NCCCc1ccccc1)c1cccc(F)c1 (stereo unspecified) | 66.6% | 80.2% |  | 0.711 nM | 0.631 nM |  |  |
| CN(C)C(CNC(=O)NCc1ccc(C(F)(F)F)cc1)c1cccc(F)c1 (stereo unspecified) | 92.3% | 93.3% | 0% | 0.71 nM | 0.19 nM |  |  |
| CN(C)C(CNC(=O)Nc1cccc(Cl)c1)c1cccc(F)c1 (stereo unspecified) |  | 72.5% |  |  | 0.1 nM | < 20% |  |
| CN(C)C(CNC(=O)NCc1ccc(OC(F)(F)F)cc1)c1cccc(F)c1 (stereo unspecified) | 61.9% | 76.9% |  | 2420 nM | 1.52 nM |  |  |
| CN(C)C(CNC(=O)NCCc1cccc(Cl)c1)c1cccc(F)c1 (stereo unspecified) | 91.6% | 89.9% | 0% |  |  |  |  |
| CN(C)C(CNC(=O)NCc1cccc(OC(F)(F)F)c1)c1cccc(F)c1 (stereo unspecified) | 80.4% | 77.9% |  | 0.02 nM | 0.0164 nM |  |  |
| CN(C)C(CNC(=O)NCc1ccc(Cl)cc1)c1cccc(F)c1 (stereo unspecified) |  | 84.7% |  |  | 0.00033 nM | < 20% |  |
| Cc1cccc(CNC(=O)NCC(c2cccc(F)c2)N(C)C)c1 (stereo unspecified) | 67.1% | 91.4% |  | 2130 nM | 0.526 nM |  |  |
| CN(C)C(CNC(=O)NC1CCCC1)c1cccc(F)c1 (stereo unspecified) | 67.1% |  |  | 2.6 nM |  |  | < 20% |
| CN(C)C(CNC(=O)Nc1ccc(Cl)c(Cl)c1)c1cccc(F)c1 (stereo unspecified) | 74.1% | 68.5% |  | 37.2 nM |  |  |  |
| Cc1ccc(CNC(=O)NCC(c2cccc(F)c2)N(C)C)cc1 (stereo unspecified) |  | 88% |  |  |  | < 20% |  |
| CN(C)C(CNC(=O)NCCc1ccc(C(F)(F)F)cc1)c1cccc(F)c1 (stereo unspecified) | 57.5% | 88.5% | 39.05% | 0.06 nM | 0.000501 nM |  |  |
